Experimental data published in patent US8216822B2, “Bacterial host cell for the direct expression of peptides” (Unigene Laboratories, Inc., priority 2004, dated 2012).

B1: α2-macroglobulin: protease inhibitor (protein, UniProt P01023 24-1474, looked up)
Alpha-2-macroglobulin: SVSGKPQYMVLVPSLLHTETTEKGCVLLSYLNETVTVSASLESVRGNRSLFTDLEAENDVLHCVAFAVPKSSSNEEVMFLTVQVKGPTQEFKKRTTVMVKNEDSLVFVQTDKSIYKPGQTVKFRVVSMDENFHPLNELIPLVYIQDPKGNRIAQWQSFQLEGGLKQFSFPLSSEPFQGSYKVVVQKKSGGRTEHPFTVEEFVLPKFEVQVTVPKIITILEEEMNVSVCGLYTYGKPVPGHVTVSICRKYSDASDCHGEDSQAFCEKFSGQLNSHGCFYQQVKTKVFQLKRKEYEMKLHTEAQIQEEGTVVELTGRQSSEITRTITKLSFVKVDSHFRQGIPFFGQVRLVDGKGVPIPNKVIFIRGNEANYYSNATTDEHGLVQFSINTTNVMGTSLTVRVNYKDRSPCYGYQWVSEEHEEAHHTAYLVFSPSKSFVHLEPMSHELPCGHTQTVQAHYILNGGTLLGLKKLSFYYLIMAKGGIVRTGTHGLLVKQEDMKGHFSISIPVKSDIAPVARLLIYAVLPTGDVIGDSAKYDVENCLANKVDLSFSPSQSLPASHAHLRVTAAPQSVCALRAVDQSVLLMKPDAELSASSVYNLLPEKDLTGFPGPLNDQDNEDCINRHNVYINGITYTPVSSTNEKDMYSFLEDMGLKAFTNSKIRKPKMCPQLQQYEMHGPEGLRVGFYESDVMGRGHARLVHVEEPHTETVRKYFPETWIWDLVVVNSAGVAEVGVTVPDTITEWKAGAFCLSEDAGLGISSTASLRAFQPFFVELTMPYSVIRGEAFTLKATVLNYLPKCIRVSVQLEASPAFLAVPVEKEQAPHCICANGRQTVSWAVTPKSLGNVNFTVSAEALESQELCGTEVPSVPEHGRKDTVIKPLLVEPEGLEKETTFNSLLCPSGGEVSEELSLKLPPNVVEESARASVSVLGDILGSAMQNTQNLLQMPYGCGEQNMVLFAPNIYVLDYLNETQQLTPEIKSKAIGYLNTGYQRQLNYKHYDGSYSTFGERYGRNQGNTWLTAFVLKTFAQARAYIFIDEAHITQALIWLSQRQKDNGCFRSSGSLLNNAIKGGVEDEVTLSAYITIALLEIPLTVTHPVVRNALFCLESAWKTAQEGDHGSHVYTKALLAYAFALAGNQDKRKEVLKSLNEEAVKKDNSVHWERPQKPKAPVGHFYEPQAPSAEVEMTSYVLLAYLTAQPAPTSEDLTSATNIVKWITKQQNAQGGFSSTQDTVVALHALSKYGAATFTRTGKAAQVTIQSSGTFSSKFQVDNNNRLLLQQVSLPELPGEYSMKVTGEGCVYLQTSLKYNILPEKEEFPFALGVQTLPQTCDEPKAHTSFQISLSVSYTGSRSASNMAIVDVKMVSGFIPLKPTVKMLERSNHVSRTEVSSNHVLIYLDKVSNQTLSLFFTVLQDVPVRDLKPAIVKVYDYYETDEFAIAEYNAPCSKDLGNA

Assays:
[1] = system: proteolytic degradation of sCTgly in conditioned fermentation medium; test: Protease inhibitors tested for ability to reduce proteolytic degradation of sCTgly in conditioned medium; format: biochemical, E. coli; conditions: 30° C.
Procedure: Conditioned medium samples from both UGL165 (E. coli BLR transformed with pSCT 029) and UGL703 (E. coli BLR transformed with pSCT 038) Direct Expression fermentations were tested for loss of sCTgly following removal of cells and incubation of the medium spiked with sCTgly at 30° C. The concentration of sCTgly in conditioned fermentation medium was measured by CEX HPLC.

[2] = molecular target: T1, E. coli Protease III (zinc metalloprotease) in fermentation medium (Escherichia coli, UniProt P05458); test: Divalent cation specificity of sCTgly degradation in fermentation medium (EDTA, MgCl2, ZnCl2); format: biochemical; conditions: 15 mM added to EDTA (50 mM) pre-treated medium, 30° C., 4 hrs
T1 construct: E. coli Protease III is a periplasmic/extracellular zinc metalloprotease; endogenous in cells; host or cells: E. coli BLR (UGL703 / UGL165), cell-free conditioned fermentation medium
T1 sequence (P05458 24-962): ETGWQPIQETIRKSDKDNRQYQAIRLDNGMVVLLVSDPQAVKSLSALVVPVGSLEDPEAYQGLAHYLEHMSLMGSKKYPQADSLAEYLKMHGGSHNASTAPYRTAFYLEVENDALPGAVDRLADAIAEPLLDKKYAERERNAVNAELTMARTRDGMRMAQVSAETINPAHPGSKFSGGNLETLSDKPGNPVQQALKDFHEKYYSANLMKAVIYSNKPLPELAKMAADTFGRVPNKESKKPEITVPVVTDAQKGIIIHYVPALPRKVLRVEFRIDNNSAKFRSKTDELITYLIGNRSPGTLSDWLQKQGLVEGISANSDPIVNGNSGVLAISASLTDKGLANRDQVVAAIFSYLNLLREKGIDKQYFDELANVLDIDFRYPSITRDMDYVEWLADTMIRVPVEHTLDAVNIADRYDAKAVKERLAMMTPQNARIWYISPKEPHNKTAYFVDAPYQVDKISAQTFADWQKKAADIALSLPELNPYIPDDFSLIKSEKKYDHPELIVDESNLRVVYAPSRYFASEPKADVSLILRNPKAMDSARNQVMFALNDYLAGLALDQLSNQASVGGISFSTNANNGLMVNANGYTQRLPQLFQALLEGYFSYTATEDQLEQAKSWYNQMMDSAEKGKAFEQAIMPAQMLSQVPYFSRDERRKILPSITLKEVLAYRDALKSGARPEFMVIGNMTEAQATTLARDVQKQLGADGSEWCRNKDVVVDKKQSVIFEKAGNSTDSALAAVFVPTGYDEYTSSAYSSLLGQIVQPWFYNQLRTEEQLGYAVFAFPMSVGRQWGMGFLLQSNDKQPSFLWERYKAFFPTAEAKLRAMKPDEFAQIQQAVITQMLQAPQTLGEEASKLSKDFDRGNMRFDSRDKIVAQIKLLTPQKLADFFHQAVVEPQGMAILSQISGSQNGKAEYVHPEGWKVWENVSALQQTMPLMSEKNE

Molecule	ability to reduce or eliminate proteolytic degradation of sCTgly [1]	reactivation of proteolytic activity by divalent cation [2]
CC(C)C[C@H](NC(=O)[C@@H](O)[C@H](N)Cc1ccccc1)C(=O)O [Bestatin]	Only EDTA was able to reduce the proteolytic degradation of sCTgly	–
[Cl-].[Cl-].[Mg+2] [MgCl2]	–	magnesium was not
[Cl-].[Cl-].[Zn+2] [ZnCl2]	–	zinc was effective
B1	Only EDTA was able to reduce the proteolytic degradation of sCTgly	–
